# Assay results reported in patent US5393742A, “Preparation for treating renal disease” (MECT Corporation, priority 1990, dated 1995).
# Like-named read-outs stand apart in the source and are kept apart here.
# Columns and labels:
# [1] = tested on: Puromycin aminonucleoside (PAN) induced nephritis; format: in vivo, Male Sprague-Dawley (SD) rats; settings: for Kidney Moist Weight / Weight Gain Rate: 14 days after PAN
# Experimental: Effect on Puromycin aminonucleoside (PAN) induced nephritis, i.e. PAN induced nephrosis or nephrotic syndrome:
# Male Sprague-Dawley (SD) rats weighing 160-180 g were used.
# As the nephritis, i.e. nephrosis or nephrotic syndrome, causing substance, PAN (made by Sigma Co., Ltd.) was used. As the test compound, sodium N-acetylneuraminate (made by MECT Corporation) was used.
# PAN was intraperitoneally administered in an amount of 80 mg per 1 kg of body weight to rats to cause nephritis, i.e. nephrosis or nephrotic syndrome. Then, the test compound (Groups I, II or III) or physiological saline solution (Group IV) was intraperitoneally administered 3 times a day (morning, noon and evening) for 14 consecutive days immediately after treatment with PAN as follows. As a positive control, methylprednisolone was subcutaneously administered to rats of Group V once a day (noon) for 14 consecutive days immediately after treatment with PAN. Moreover, 3, 6, 9 and 13 days after treatment with PAN, 5 ml water was loaded, and the urine was collected for 6 hours. Fourteen days after treatment with PAN, autopsies were made, the kidneys were extirpated and their moist weights were measured.
# Group I: 0.1 mg Sodium N-acetylneuraminate per 1 kg of body weight was administered.
# Group II: 0.5 mg Sodium N-acetylneuraminate per 1 kg of body weight was administered.
# Group III: 1.0 mg Sodium N-acetylneuraminate per 1 kg of body weight was administered.
# Group IV: 2.5 ml Physiological saline solution per 1 kg of body weight was administered.
# Group V: 2 mg Methylprednisolone per 1 kg of body weight was administered.
# Group VI: Normal rats (no drug was given).
# Regarding the results of therapeutic effect for treating renal disease (nephrotic syndrome) of the given NANA compound per Example 1 above, it will be appreciated that the test compound sodium N-acetylneuraminate (Groups I, II and III) was dissolved in physiological saline and intraperitoneally administered, compared to intraperitoneal administration of physiological saline alone (Group IV) and subcutaneous administration of methylprednisolone (Group V).
# Male ddy mice = assay: Simplified acute toxicity test of N-acetylneuraminates in mice by intravenous injection; format: in vivo
# Experimental: Simplified acute toxicity test:
# A simplified acute toxicity test of N-acetylneuraminates in mice by intravenous injection was carried out as follows.
# Lithium-, potassium-, barium- and magnesium- salts of N-acetylneuraminic acid were used (all were from MECT Corporation).
# Body weights at the start of the test: 17.7-21.1 g
# The number of animals at each level: 3 mice
# (3) Room temperature: 23±1° C. - Humidity: 55±7%
# The above-mentioned test compounds were dissolved in physiological saline solution to make a 0.2 ml solution per 20 g of body weight in a mouse as an injection fluid and injected into the tail vein. The doses were 500, 1,000 and 2,000 mg/kg.
# rat GEC = settings: cited from earlier work
# [2] = 2.0 mg/kg s.c., once a day, positive control
smiles,measurement,setting,value
"C[C@H]1C[C@@H]2[C@H]([C@@H](O)C[C@@]3(C)[C@H]2CC[C@]3(O)C(=O)CO)[C@@]2(C)C=CC(=O)C=C12 [Methylprednisolone, methylprednisolone, reference compound]",Kidney Moist Weight,[1]; [2],0.43 ± 0.01 g/100 g
same,Weight Gain Rate,[1]; [2],107.7 ± 1.6%
same,Urinary Protein Content,"[1]; 3rd Day, 2.0 mg/kg s.c., once a day",22.3 ± 2.1 mg/24 hours
same,Urinary Protein Content,"[1]; 6th Day, 2.0 mg/kg s.c., once a day",55.8 ± 11.4 mg/24 hours
same,Urinary Protein Content,"[1]; 9th Day, 2.0 mg/kg s.c., once a day",68.7 ± 13.1 mg/24 hours
same,Urinary Protein Content,"[1]; 13th Day, 2.0 mg/kg s.c., once a day",56.1 ± 12.5 mg/24 hours
same,Effect on weight gain (in words),"[1]; PAN rats, 14 days",greater inhibition of weight gain
same,Effect on increase in urinary protein content (in words),"[1]; PAN rats, 6th, 9th and 13th day",inhibits increase in urinary protein content
same,Systemic side effect (in words),"[1]; rat, in vivo",greater systemic side effect
CC(=O)N[C@H]1[C@H]([C@H](O)[C@H](O)CO)OC(O)(C(=O)[O-])C[C@@H]1O.[Li+] (stereo partly drawn) [Lithium N-acetylneuraminate],The number of deaths per day course,"Male ddy mice; 500 mg/kg i.v., 1 hrs",0
same,The number of deaths per day course,"Male ddy mice; 500 mg/kg i.v., 3 hrs",0
same,The number of deaths per day course,"Male ddy mice; 500 mg/kg i.v., 6 hrs",0
same,The number of deaths per day course,"Male ddy mice; 500 mg/kg i.v., 24 hrs",0
same,The number of deaths per day course,"Male ddy mice; 500 mg/kg i.v., 2 days",0
same,The number of deaths per day course,"Male ddy mice; 500 mg/kg i.v., 3 days",0
same,The number of deaths per day course,"Male ddy mice; 500 mg/kg i.v., 4 days",0
same,The number of deaths per day course,"Male ddy mice; 500 mg/kg i.v., 5 days",0
same,The number of deaths per day course,"Male ddy mice; 500 mg/kg i.v., 6 days",0
same,Final Lethality,"Male ddy mice; 500 mg/kg i.v., 7 days",0/3
same,The number of deaths per day course,"Male ddy mice; 500 mg/kg i.v., 7 days",0
same,Final Lethality,"Male ddy mice; 1000 mg/kg i.v., 7 days",0/3
same,The number of deaths per day course,"Male ddy mice; 1000 mg/kg i.v., 7 days",0
same,The number of deaths per day course,"Male ddy mice; 1000 mg/kg i.v., 1 hrs",0
same,The number of deaths per day course,"Male ddy mice; 1000 mg/kg i.v., 3 hrs",0
same,The number of deaths per day course,"Male ddy mice; 1000 mg/kg i.v., 6 hrs",0
same,The number of deaths per day course,"Male ddy mice; 1000 mg/kg i.v., 24 hrs",0
same,The number of deaths per day course,"Male ddy mice; 1000 mg/kg i.v., 2 days",0
same,The number of deaths per day course,"Male ddy mice; 1000 mg/kg i.v., 3 days",0
same,The number of deaths per day course,"Male ddy mice; 1000 mg/kg i.v., 4 days",0
same,The number of deaths per day course,"Male ddy mice; 1000 mg/kg i.v., 5 days",0
same,The number of deaths per day course,"Male ddy mice; 1000 mg/kg i.v., 6 days",0
same,Final Lethality,"Male ddy mice; 2000 mg/kg i.v., 7 days",0/3
same,The number of deaths per day course,"Male ddy mice; 2000 mg/kg i.v., 7 days",0
same,The number of deaths per day course,"Male ddy mice; 2000 mg/kg i.v., 1 hrs",0
same,The number of deaths per day course,"Male ddy mice; 2000 mg/kg i.v., 3 hrs",0
same,The number of deaths per day course,"Male ddy mice; 2000 mg/kg i.v., 6 hrs",0
same,The number of deaths per day course,"Male ddy mice; 2000 mg/kg i.v., 24 hrs",0
same,The number of deaths per day course,"Male ddy mice; 2000 mg/kg i.v., 2 days",0
same,The number of deaths per day course,"Male ddy mice; 2000 mg/kg i.v., 3 days",0
same,The number of deaths per day course,"Male ddy mice; 2000 mg/kg i.v., 4 days",0
same,The number of deaths per day course,"Male ddy mice; 2000 mg/kg i.v., 5 days",0
same,The number of deaths per day course,"Male ddy mice; 2000 mg/kg i.v., 6 days",0
"CN(C)c1ncnc2c1ncn2[C@@H]1O[C@H](CO)[C@@H](N)[C@H]1O [PAN, puromycin aminonucleoside]",Effect on heparan sulfate proteoglycan (HSPG),rat GEC,reduces heparan sulfate proteoglycan (HSPG)
"C[C@]12C=CC(=O)C=C1CC[C@@H]1[C@@H]2[C@@H](O)C[C@@]2(C)[C@H]1CC[C@]2(O)C(=O)CO [prednisolone, reference compound]",Effect on increase of kidney moist weight (in words),"[1]; PAN rats, 14 days",inhibits increase in kidney moist weight
CC(=O)N[C@H]1[C@H]([C@H](O)[C@H](O)CO)OC(O)(C(=O)[O-])C[C@@H]1O.[Na+] (stereo partly drawn),Kidney Moist Weight,"[1]; 0.1 mg/kg i.p., 3 times a day",0.47 ± 0.02 g/100 g
same,Weight Gain Rate,"[1]; 0.1 mg/kg i.p., 3 times a day",127.1 ± 2.0%
same,Kidney Moist Weight,"[1]; 0.5 mg/kg i.p., 3 times a day",0.44 ± 0.02 g/100 g
same,Weight Gain Rate,"[1]; 0.5 mg/kg i.p., 3 times a day",128.4 ± 1.8%
same,Kidney Moist Weight,"[1]; 1.0 mg/kg i.p., 3 times a day",0.42 ± 0.02 g/100 g
same,Weight Gain Rate,"[1]; 1.0 mg/kg i.p., 3 times a day",131.3 ± 1.9%
same,Urinary Protein Content,"[1]; 3rd Day, 0.1 mg/kg i.p., 3 times a day",14.1 ± 1.1 mg/24 hours
same,Urinary Protein Content,"[1]; 3rd Day, 0.5 mg/kg i.p., 3 times a day",11.3 ± 0.8 mg/24 hours
same,Urinary Protein Content,"[1]; 3rd Day, 1.0 mg/kg i.p., 3 times a day",5.1 ± 0.4 mg/24 hours
same,Urinary Protein Content,"[1]; 6th Day, 0.1 mg/kg i.p., 3 times a day",83.4 ± 8.6 mg/24 hours
same,Urinary Protein Content,"[1]; 6th Day, 0.5 mg/kg i.p., 3 times a day",49.1 ± 13.6 mg/24 hours
same,Urinary Protein Content,"[1]; 6th Day, 1.0 mg/kg i.p., 3 times a day",50.5 ± 10.7 mg/24 hours
same,Urinary Protein Content,"[1]; 9th Day, 0.1 mg/kg i.p., 3 times a day",99.6 ± 14.2 mg/24 hours
same,Urinary Protein Content,"[1]; 9th Day, 0.5 mg/kg i.p., 3 times a day",59.9 ± 14.7 mg/24 hours
same,Urinary Protein Content,"[1]; 9th Day, 1.0 mg/kg i.p., 3 times a day",51.2 ± 15.6 mg/24 hours
same,Urinary Protein Content,"[1]; 13th Day, 0.1 mg/kg i.p., 3 times a day",109.9 ± 12.9 mg/24 hours
same,Urinary Protein Content,"[1]; 13th Day, 0.5 mg/kg i.p., 3 times a day",94.5 ± 30.4 mg/24 hours
same,Urinary Protein Content,"[1]; 13th Day, 1.0 mg/kg i.p., 3 times a day",77.9 ± 17.9 mg/24 hours
same,Systemic side effect (in words),"[1]; PAN rats, weight gain as index of systemic effect",does not show such side effect
same,"Effect on renal disease, nephrosis or nephrotic syndrome (in words)",[1]; PAN-induced nephritis,has a therapeutic effect on renal disease
CC(=O)N[C@H]1[C@H]([C@H](O)[C@H](O)CO)OC(O)(C(=O)O)C[C@@H]1O (stereo partly drawn) [Barium N-acetylneuraminate],Deaths (in words),Male ddy mice; 500 mg/kg i.v.,all 3 of the 3 mice
same,The number of deaths per day course,"Male ddy mice; 500 mg/kg i.v., 1 hrs",3
same,The number of deaths per day course,"Male ddy mice; 500 mg/kg i.v., 3 hrs",0
same,The number of deaths per day course,"Male ddy mice; 500 mg/kg i.v., 6 hrs",0
same,The number of deaths per day course,"Male ddy mice; 500 mg/kg i.v., 24 hrs",0
same,The number of deaths per day course,"Male ddy mice; 500 mg/kg i.v., 2 days",0
same,The number of deaths per day course,"Male ddy mice; 500 mg/kg i.v., 3 days",0
same,The number of deaths per day course,"Male ddy mice; 500 mg/kg i.v., 4 days",0
same,The number of deaths per day course,"Male ddy mice; 500 mg/kg i.v., 5 days",0
same,The number of deaths per day course,"Male ddy mice; 500 mg/kg i.v., 6 days",0
same,Final Lethality,"Male ddy mice; 500 mg/kg i.v., 7 days",3/3
same,The number of deaths per day course,"Male ddy mice; 500 mg/kg i.v., 7 days",0
same,Final Lethality,"Male ddy mice; 1000 mg/kg i.v., 7 days",3/3
same,The number of deaths per day course,"Male ddy mice; 1000 mg/kg i.v., 7 days",0
same,The number of deaths per day course,"Male ddy mice; 1000 mg/kg i.v., 1 hrs",3
same,The number of deaths per day course,"Male ddy mice; 1000 mg/kg i.v., 3 hrs",0
same,The number of deaths per day course,"Male ddy mice; 1000 mg/kg i.v., 6 hrs",0
same,The number of deaths per day course,"Male ddy mice; 1000 mg/kg i.v., 24 hrs",0
same,The number of deaths per day course,"Male ddy mice; 1000 mg/kg i.v., 2 days",0
same,The number of deaths per day course,"Male ddy mice; 1000 mg/kg i.v., 3 days",0
same,The number of deaths per day course,"Male ddy mice; 1000 mg/kg i.v., 4 days",0
same,The number of deaths per day course,"Male ddy mice; 1000 mg/kg i.v., 5 days",0
same,The number of deaths per day course,"Male ddy mice; 1000 mg/kg i.v., 6 days",0
same,Final Lethality,"Male ddy mice; 2000 mg/kg i.v., 7 days",3/3
same,The number of deaths per day course,"Male ddy mice; 2000 mg/kg i.v., 7 days",0
same,The number of deaths per day course,"Male ddy mice; 2000 mg/kg i.v., 1 hrs",3
same,The number of deaths per day course,"Male ddy mice; 2000 mg/kg i.v., 3 hrs",0
same,The number of deaths per day course,"Male ddy mice; 2000 mg/kg i.v., 6 hrs",0
same,The number of deaths per day course,"Male ddy mice; 2000 mg/kg i.v., 24 hrs",0
same,The number of deaths per day course,"Male ddy mice; 2000 mg/kg i.v., 2 days",0
same,The number of deaths per day course,"Male ddy mice; 2000 mg/kg i.v., 3 days",0
same,The number of deaths per day course,"Male ddy mice; 2000 mg/kg i.v., 4 days",0
same,The number of deaths per day course,"Male ddy mice; 2000 mg/kg i.v., 5 days",0
same,The number of deaths per day course,"Male ddy mice; 2000 mg/kg i.v., 6 days",0
same,Deaths (in words),"Male ddy mice; 1,000 and 2,000 mg/kg i.v.",all of the 3 mice died
